Experimental data published in paper PMC11532494 (Nature Communications, 2024).
Values joined by “and” are separate entries in the source; they are usually repeats but may differ in a detail not shown here. Identical values can stand only once. Like-named read-outs stand apart in the source and are kept apart here.

Key:
[1] = target: PrpH (propanil hydrolase) of Rhizorhabdus sp. (Rhizorhabdus sp.); experiment: crystal structure
BsAcuC (2c) [2] = target: T1, BsAcuC (2c) (Bacillus subtilis, UniProt P39067); experiment: Dose-response inhibition assay; format: biochemical; conditions: for IC50: 200 nM enzyme, 30 min, 37 °C
T1 construct: made in house; host or cells: E. coli BL21 (DE3)
T1 sequence (P39067 1-387): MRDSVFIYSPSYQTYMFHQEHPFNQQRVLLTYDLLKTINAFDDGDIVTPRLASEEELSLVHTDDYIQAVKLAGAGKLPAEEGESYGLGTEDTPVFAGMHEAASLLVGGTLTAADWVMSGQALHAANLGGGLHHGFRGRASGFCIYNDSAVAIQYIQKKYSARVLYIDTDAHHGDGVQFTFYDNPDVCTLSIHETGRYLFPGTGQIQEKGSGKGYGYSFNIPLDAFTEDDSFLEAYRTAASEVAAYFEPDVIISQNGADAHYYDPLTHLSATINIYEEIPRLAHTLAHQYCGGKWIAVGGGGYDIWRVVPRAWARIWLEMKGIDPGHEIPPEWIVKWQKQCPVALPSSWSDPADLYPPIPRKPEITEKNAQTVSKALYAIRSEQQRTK
From the text: Data was transformed to relative enzyme activity (%) compared to control wells without inhibitor, and fitted to sigmoidal functions with variable slope (Eqs. 3, 4 parameters, h: Hill slope) to afford IC50 values. Assuming fast-on/fast-off competitive inhibition, the Cheng–Prusoff equation (Eq. 4) was employed to transform IC50 data into inhibitory constants (Ki), with KM values as determined previously.3 Res.activity=Res.activitybottom+Res.activitytop−Res.activitybottom/1+10^(logIC50−logI)h 4 Ki=IC50/1+[S]/KM

KpHdaH (1b) [3] = target: T2, KpHdaH (1b) (Klebsiella pneumoniae, UniProt A0A377Z5F6); experiment: biochemical; conditions: for IC50: 15 nM enzyme, 60 min, 37 °C; for Ki: calculated using the Cheng–Prusoff equation
LcApaH (3) = LcApaH (3) (Legionella cherrii, UniProt A0A0W0SGS1); experiment: biochemical; conditions: for IC50: 0.5 nM enzyme, 30 min, 37 °C; for Ki: calculated using the Cheng–Prusoff equation
LpApaH (3) = LpApaH (3) (Legionella pneumophila, UniProt A0A2S6EWV0); experiment: biochemical
RwDmhA (1b) [4] = target: T3, RwDmhA (1b) (Rhizorhabdus wittichii, UniProt A0A067XIQ6); experiment: biochemical; conditions: for IC50: 30 nM enzyme, 60 min, 37 °C
(UniProt A0A2N0XRJ0) = experiment: biochemical; parameters: species or system Vibrio sp.; conditions: for IC50: 60 µM QPKKac, 1.5 nM enzyme, 60 min, 37 °C
BsAcuC (2c) [5] = target: T1, BsAcuC (2c); experiment: Inhibitor screening assay (10 µM or 1 µM); format: biochemical; conditions: for inhibition of BsAcuC (2c) in the initial screen, in words: pre-screening at 10 µM or 1 µM inhibitor
From the text: Data was transformed to relative enzyme activity (%) compared to control wells without inhibitors.

KpHdaH (1b) [6] = target: T2, KpHdaH (1b); experiment: biochemical; conditions: for remaining activity at 1 µM: inhibitor 1 µM; for remaining activity at 10 µM: inhibitor 10 µM
RwDmhA (1b) [7] = target: T3, RwDmhA (1b); experiment: biochemical; conditions: for remaining activity at 1 µM: inhibitor 1 µM
VcHdaH (5b) = conditions: VcHdaH (5b)+TSA control; for RFU: 20 nM enzyme, 37 °C, single replicates; for RFU, mean: mean of n = 3
HsHDAC11 (5f) = conditions: cited from earlier work
PsApaH (4) = PsApaH (4) (Pseudomonas sp. M30-35, UniProt A0A1Y0KY79); experiment: biochemical
[8] = target: Δ20-37 KpHdaH (Klebsiella pneumoniae)
[9] = target: Pseudomonas sp. acetylpolyamine amidohydrolase ApaH (Pseudomonas sp.); experiment: SEC
[10] = target: PsApaH_(1-342) (4) (Pseudomonas sp.); experiment: crystal structure
crystal structure = target: the molecule itself; experiment: crystal structure
[11] = target: DmhA (dimethoate hydrolase) of Rhizorhabdus wittichii (Rhizorhabdus wittichii); experiment: enzyme kinetics with substrate in
[12] = target: Pseudomonas sp. acetylpolyamine amidohydrolase ApaH (Pseudomonas sp.); experiment: enzyme kinetics with substrate in
[13] = target: T4, Legionella cherrii acetyl-polyamine aminohydrolase (Legionella cherrii); experiment: enzyme kinetics with substrate inhibition (Fluor-de-Lys assay)
T4 sequence: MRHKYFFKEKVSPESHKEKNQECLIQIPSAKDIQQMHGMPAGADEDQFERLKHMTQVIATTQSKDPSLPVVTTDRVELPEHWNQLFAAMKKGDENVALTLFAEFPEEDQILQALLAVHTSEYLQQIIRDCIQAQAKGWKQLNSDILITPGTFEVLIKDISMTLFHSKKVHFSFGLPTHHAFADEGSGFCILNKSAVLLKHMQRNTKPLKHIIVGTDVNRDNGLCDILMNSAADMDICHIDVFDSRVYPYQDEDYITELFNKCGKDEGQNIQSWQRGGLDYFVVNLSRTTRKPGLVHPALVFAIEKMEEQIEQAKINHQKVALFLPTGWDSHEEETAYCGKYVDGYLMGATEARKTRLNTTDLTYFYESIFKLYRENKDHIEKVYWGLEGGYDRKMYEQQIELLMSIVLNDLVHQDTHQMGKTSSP

[14] = target: T5, Legionella pneumophila acetyl-polyamine aminohydrolase (Legionella pneumophila); experiment: as above
T5 sequence: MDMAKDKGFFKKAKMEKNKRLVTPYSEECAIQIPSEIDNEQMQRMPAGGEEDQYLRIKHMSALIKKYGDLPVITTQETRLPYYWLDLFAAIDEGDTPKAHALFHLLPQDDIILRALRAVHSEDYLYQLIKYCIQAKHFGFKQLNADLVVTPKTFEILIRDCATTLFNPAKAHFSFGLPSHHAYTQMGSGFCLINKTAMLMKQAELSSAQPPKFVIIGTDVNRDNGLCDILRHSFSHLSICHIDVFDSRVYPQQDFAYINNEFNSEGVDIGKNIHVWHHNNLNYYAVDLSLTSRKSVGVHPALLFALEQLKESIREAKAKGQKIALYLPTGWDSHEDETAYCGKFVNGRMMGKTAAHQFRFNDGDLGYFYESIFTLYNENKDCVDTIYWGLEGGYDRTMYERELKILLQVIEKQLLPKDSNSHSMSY

[15] = Log[IC50(M)], decadic log of IC50, 60 µM QPKKac
[16] = Log[IC50(M)], decadic log of IC50, 40 µM LGKac

(UniProt A0A2N0XRJ0), sequence (A0A2N0XRJ0 1-372): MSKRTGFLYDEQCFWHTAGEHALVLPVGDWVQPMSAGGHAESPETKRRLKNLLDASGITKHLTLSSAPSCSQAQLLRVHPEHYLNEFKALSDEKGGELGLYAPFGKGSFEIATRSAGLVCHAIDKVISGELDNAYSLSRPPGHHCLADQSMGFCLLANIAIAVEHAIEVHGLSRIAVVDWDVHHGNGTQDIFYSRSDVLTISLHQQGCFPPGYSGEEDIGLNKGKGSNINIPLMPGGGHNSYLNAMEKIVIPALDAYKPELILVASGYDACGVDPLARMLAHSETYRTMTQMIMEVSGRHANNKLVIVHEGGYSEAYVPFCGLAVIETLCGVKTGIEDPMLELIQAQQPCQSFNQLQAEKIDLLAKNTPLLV

PrpH (propanil hydrolase) of Rhizorhabdus sp. (enzyme)
stoichiometry N [1]: 4

CC(/C=C/C(=O)NO)=C\[C@@H](C)C(=O)c1ccc(N(C)C)cc1 [TSA, trichostatin A]
IC50 (BsAcuC (2c) [2]; 40 µM LGKac, read-out: IC50): 5.93e-07 M
Ki (BsAcuC (2c) [2]; calculated using the Cheng–Prusoff equation, 40 µM LGKac): 400 nM
IC50 (BsAcuC (2c) [2]; decadic log of IC50, 40 µM LGKac, read-out: Log[IC50(M)] (converted)): 6.31e-07 M
IC50 (KpHdaH (1b) [3]; IC50, 60 µM QPKKac): ≤ 1.07e-08 M
Ki (KpHdaH (1b) [3]; 60 µM QPKKac): ≤ 2.47 nM
IC50 (KpHdaH (1b) [3]; [15]): ≤ 1.07e-08 M
IC50 (LcApaH (3); IC50, 40 µM LGKac): 1.04e-08 M
Ki (LcApaH (3); 40 µM LGKac): 3.95 nM
IC50 (LcApaH (3); [16]): 1.05e-08 M
IC50 (LpApaH (3); IC50): 7.17e-09 M
Ki (LpApaH (3)): 2.47 nM
IC50 (LpApaH (3); Log[IC50(M)]): 7.94e-09 M
Ki (RwDmhA (1b) [4]): 356 nM
IC50 (RwDmhA (1b) [4]; IC50, 60 µM QPKKac): 8.65e-07 M
IC50 (RwDmhA (1b) [4]; [15]): 8.71e-07 M
Ki ((UniProt A0A2N0XRJ0)): 11.1 nM
IC50 ((UniProt A0A2N0XRJ0); read-out: IC50): 2.54e-08 M
IC50 ((UniProt A0A2N0XRJ0); decadic log of IC50, read-out: Log[IC50(M)] (converted)): 2.51e-08 M
inhibition of BsAcuC (2c) in the initial screen, in words (BsAcuC (2c) [5]): only weakly inhibited
remaining activity at 1 µM (KpHdaH (1b) [6]; individual replicates): 2.1%
remaining activity at 1 µM (KpHdaH (1b) [6]; mean): 2.15%
remaining activity at 10 µM (KpHdaH (1b) [6]; individual replicates): -0.2%
remaining activity at 10 µM (KpHdaH (1b) [6]; mean): -0.2%
remaining activity at 1 µM (RwDmhA (1b) [7]; individual replicates): 45.9%
remaining activity at 1 µM (RwDmhA (1b) [7]; mean): 45.5%
remaining activity at 10 µM (RwDmhA (1b) [7]; inhibitor 10 µM, mean): 7.3%
RFU (VcHdaH (5b); 10 µM peptide 2 (S2), 45 min): 14 RFU and 2 RFU and 59 RFU
RFU, mean (VcHdaH (5b); 10 µM peptide 2 (S2)): 25 RFU
RFU (VcHdaH (5b); 10 µM peptide 2a (S2a), 30 min): -513 RFU and -208 RFU and -504 RFU
RFU, mean (VcHdaH (5b); 10 µM peptide 2a (S2a)): -408 RFU
RFU (VcHdaH (5b); 20 µM Boc-Lys(Ac)-AMC, 30 min): 8 RFU and -7 RFU and -73 RFU
RFU, mean (VcHdaH (5b); 20 µM Boc-Lys(Ac)-AMC): -24 RFU
inhibition of HsHDAC11 (5f), in words (HsHDAC11 (5f)): only weakly inhibited
IC50 (PsApaH (4)): ≤ 18.1 nM
Ki (PsApaH (4)): ≤ 7.56 nM

Δ20-37 KpHdaH (from UniProt A0A377Z5F6 1-371) (enzyme)
stoichiometry N [8]: 2

Pseudomonas sp. acetylpolyamine amidohydrolase ApaH (enzyme)
stoichiometry N [9]: 2

O=C(CCCCCCC(=O)Nc1ccccc1)NO [SAHA, suberoylanilide hydroxamic acid]
inhibition of BsAcuC (2c), in words (BsAcuC (2c) [2]; dose-response inhibition assay): not detecting any inhibition
IC50 (KpHdaH (1b) [3]; IC50, 60 µM QPKKac): 9.71e-08 M
Ki (KpHdaH (1b) [3]; 60 µM QPKKac): 22.4 nM
IC50 (KpHdaH (1b) [3]; [15]): 9.77e-08 M
IC50 (LcApaH (3); IC50, 40 µM LGKac): 8.09e-07 M
Ki (LcApaH (3); 40 µM LGKac): 307 nM
IC50 (LcApaH (3); [16]): 8.13e-07 M
IC50 (LpApaH (3); IC50): 6.69e-07 M
Ki (LpApaH (3)): 230 nM
IC50 (LpApaH (3); Log[IC50(M)]): 6.61e-07 M
Ki (RwDmhA (1b) [4]): 41.6 nM
IC50 (RwDmhA (1b) [4]; IC50, 60 µM QPKKac): 1.01e-07 M
IC50 (RwDmhA (1b) [4]; [15]): 1e-07 M
remaining activity at 1 µM (BsAcuC (2c) [5]; 1 µM inhibitor, mean of n = 2, 40 µM LGKac): 84.7%
remaining activity at 1 µM (BsAcuC (2c) [5]; 1 µM inhibitor, single measurements (two columns), 40 µM LGKac, 60 min, 37 °C): 83.2%
remaining activity at 10 µM (BsAcuC (2c) [5]; 10 µM inhibitor, mean of n = 2, 40 µM LGKac): 60.6%
remaining activity at 10 µM (BsAcuC (2c) [5]; 10 µM inhibitor, single measurements (two columns), 40 µM LGKac, 60 min, 37 °C): 56.2%
remaining activity at 1 µM (BsAcuC (2c) [5]; BsAcuC (2c), inhibitor 1 µM, individual replicates): 83.2%
remaining activity at 1 µM (BsAcuC (2c) [5]; BsAcuC (2c), inhibitor 1 µM, mean): 84.7%
remaining activity at 10 µM (BsAcuC (2c) [5]; BsAcuC (2c), inhibitor 10 µM, individual replicates): 56.2%
remaining activity at 10 µM (BsAcuC (2c) [5]; BsAcuC (2c), inhibitor 10 µM, mean): 60.6%
inhibition of BsAcuC (2c) in the initial screen, in words (BsAcuC (2c) [5]): only weakly inhibited

PsApaH_(1-342) (4) (domain or fragment)
stoichiometry N [10]: 2

B1: Klebsiella pneumoniae HdaH (enzyme, UniProt A0A377Z5F6 1-371, looked up)
chain: MKRKTGFFFDERCFWHSTGLHAVTLPVGGWVQPPAGGGHAESPETKRRMKNLMDVSGLTPQLALRSAAPASLEDLRRIHPDSYLERFKAISDNGGGMLGKEAPLGPGSYEIACLSAGLACAAVEAVLKGELDNAYSLSRPPGHHCLPDQSMGFCFLANIPIAVERAKAQLGLGKVAIIDWDVHHGNGTQHIYLQRDDVLTISLHQDGCFPPGYAGEDDRGVGAGEGYNINIPLLAGAGDDSWRYALETIVIPALARFEPELIIIACGYDANAMDPLARMQLHSDSFRAMTEQVQQAADRLCGGKLVMVHEGGYAESYVPFCGLAVMEALSGIRTEVQDPLLEFIQQQQPRATFAQFQRQAIDRLAQQFGLQ
notes: also called KpHdaH (1b); KpHdaH
stoichiometry N (crystal structure): 4

B2: DmhA (dimethoate hydrolase) of Rhizorhabdus wittichii (enzyme)
chain: MARTGFYTDERTFWHATGMQALFLPVGDWVQPPNGTAGADTPDSKRRLLNLAHASGLIRKLTLPEAIPATVEDVCRVHPRDYIDRFKATSDAGGGDLGHLAPFSKGGYEIAMLSCGLAIAAVDDVLSGKVDNAYALCRPAGHHCLADTPMGFCLLANIPIAIEAAKARHGISRVAVVDWDVHHGNGTQSIFYDRADVLTISIHQDRCFPPGYSGAEDRGEGAGLGYNLNVPLPAGAGHDAYVQAFDDIVVPALDDFKPDLIIVASGLDANSVDPLARMLLHSESYRLLTQKMLDAAARLCGGKLVVVHEGGYAEAYVPFCGHALLEALSGERTAVVDPVLEMAEAWQPGPEAAAFHRQWIDRLVADLGK
notes: also called RwDmhA (1b); RwDmhA
stoichiometry N (crystal structure): 4

QPKK [p53-peptide QPKKac]
Ki [11]: 154000 nM
Ki [12]: 122000 nM
Ki [13]: 13000 nM
Ki [14]: 44000 nM
